Consider six compounds from patent publication US20040235717A1, “Suppression of androgen receptor transactivation through new pathways to ar and ar coactivators and repressors” (priority 2001, published 2004).

For one series, the system named is PI3K. Kind of series: PI3K activity assay using phosphatidylinositol as substrate. Type of series: cell-based, human. The conditions noted are these: LNCaP. Here is the method: (§1) 251. IL-6's effect on PI3K activity was tested. After serum starvation for 24 h, LNCaP, PC-3 or DU145 cells were treated with 50 μg/ml IL-6 for 30 minutes. The cells were then harvested. PI3K activity was measured by using phosphatidylinositol (PT) as a substrate. […] The transactivation was measured by CAT activity.
260. […] PI3K activity was measured using PI as a substrate.
265. PI3K activity was determined as previously described. Vlahos, C. J. et al, J. Biol. Chem. 269, 5241-5148 (1994).

Another series relates to IL-6 protein expression. In words: IL-6 secretion by LNCaP cells (ELISA). Type of series: cell-based. Here is the method:
11. […] IL-6 secretion in the medium was determined by ELISA. […] LNCaP cells, were serum starved for 24 h. […] PI3K activity was measured using PI as a substrate. The origin (ori) of the chromatogram and PI3-phosphate (PI3P) were indicated.
259. […] The IL-6 protein level in the supernatants was then evaluated by BLISA.

The next series deals with LNCaP cells. In words: DHT/TPA-induced apoptosis in LNCaP cells, TUNEL assay. To be noted: for LNCaP cell apoptosis, agent per se: 10 nM DHT or 1 nM TPA alone. It is filed as cell-based. As to the method:
(§2) 18. […] (A) Akt suppressed androgen/AR-induced p21 promoter activity. […] (B) Androgen/AR-induced PC-3(AR)6 apoptosis and p21 protein expression was blocked by Akt PC-3(AR)6 was transfected with pCDNA3, cAkt, or dAkt, as indicated, for 16 h. […] (C) AR-induced p21 protein expression was enhanced by dAkt in LNCaP cells. […] LNCaP stable transfection with dAkt was confirmed by western blot assay using phospho-Akt (Ser473) antibody. […] TPA was then added for another 24 h and cell apoptosis was determined by TUNEL assay. […] IGF-1 was added for another 30 min, followed by 10 nM TPA treatment for another 24 h. The apoptosis was determined by TUNEL assay. The data are means±s.d. from three independent experiments.
(§3) 281. The TUNEL assay was performed to measure the cell apoptosis according to the standard procedures (Oncogene Research Products). At least 200 cells were scored for each sample and the data are means±s.d. from three independent experiments.

The next series concerns p21 expression. Kind of series: p21 promoter activity (luciferase) and p21 protein expression. Type of series: cell-based. The conditions noted are these: PC-3 cells; 10 nM DHT. Here is the method: as §2
Series [1] relates to wtAR, mtARt877a, PR, VDR, ER transactivation. Kind of series: Steroid receptor transactivation with Smad3 in DU145 cells (wtAR, mtARt877a, PR, VDR, ER). Type of series: cell-based, human. The conditions noted are these: for wtAR transactivation response to ligand: DHT 10 nM, HF 1 μM, E2 10 nM.
For another series, the system named is PSA mRNA expression. In words: PSA mRNA expression in LNCaP cells, Northern blot. Type of series: cell-based.
Series [2] has as its system PC-3(AR)2, PC-3(AR)6, SAR-91 cells. Kind of series: Androgen/AR-induced apoptosis, TUNEL assay in PC-3(AR)2, PC-3(AR)6 and SAR-91 cells. It is filed as cell-based. To be noted: HF 5 μM, IGF-1 100 ng/ml, DHT 10 nM, 3 days.
Text: 17. […] (A) PC-3(AR)2 and PC-3(AR)6 expressed AR protein. PC-3 cells were stably transfected with AR, followed by selection with hygromycin B, and confirmed by western blotting using AR antibody NH27, while LNCaP was used as a positive control. (B) Androgen/AR-induced apoptosis in PC-3(AR)2, PC-3(AR)6, and SAR-91 were inhibited by PI(3)K/Akt pathway. […] The data are means±s.d. from three independent experiments.
as §2, §3

Series [3] has as its system AR transactivation. Kind of series: AR transactivation with TSA, MMTV-LUC in PC3-AR2 cells. Type of series: cell-based.
For series [4], the system named is AR transactivation. Kind of series: AR transactivation, MMTV-CAT reporter in DU145 cells transfected with AR. Type of series: cell-based, human.
Text: 250. To dissect the divergent effects of IL-6 in prostate tumor growth, Qui, Y. et al., Nature 393, 83-85 (1998); Hobisch, A. et al., Cancer Res. 58, 4640-4645 (1998); Ritchie, C. K. et al., Endocrinology 138, 1145-1150 (1997), the potential influences of IL-6 on the transactivation of AR, the master regulator of the prostate tumor growth were studied. Chang, C. et al., Science 240, 324.326 (1988); Chang, C. et al., Crit. Rev. Eukaryotic Gene Expression 5, 97-125 (1995). Because IL-6 has two major signal cascades, mitogen-activated protein kinase (MAPK) and phosphatidylinositol 3-kinase (PI3K), Qui, Y. et al., Nature 393, 83-85 (1998); Qui, Y. et al., Proc. Natl. Acad. Sci. USA 95, 3644-3649 (1998), inhibitors were applied to specifically block one of these two IL-6 signal pathways. DU145 cells were transfected for 24 h with AR and MMTV-CAT reporter gene. After transfection, the cells were serum starved for 24 h. Next, 20 μM LY294002, P098059 or vehicle was added to serum-free medium 30 min prior to IL-6 treatment. […] The cells were then harvested and AR transactivation was measured by CAT activity. […] Vlahos, C. J. et al., J. Biol. Chem. 269, 5241-5148 (1994). […] Alessi, D. R. et al., J. Biol. Chem. 270, 27489-27494 (1995).
as §1
252. Focus then turned to the two major downstream effectors of PI3K: a serine/threonine kinase (Akt/PKB) and a ribosomal S6 kinase (p70S6k). Franke, T. F. et al., Cell 88,435-437 (1997). […] The transactivation activity was determined after 24 h transfection.
262. The DU145 and PC-3 cells were maintained in Dulbecco's Minimum Essential Medium (DMEM) containing penicillin (25 μg/m1), streptomycin (25 μg/ml), and 5% fetal calf serum (FCS). The LNCaP cells were maintained in RPMI-1640 with 10% FCS. Transfections were performed using the calcium phosphate precipitation method, as previously described. Yeh, S. et al., Proc. Natl. Acad. Sci. USA 93, 5517-5521(1996).
277. The DU145 and PC-3 cells were maintained in Dulbecco's Minimum Essential Medium (DMEM) containing penicillin (25 U/ml), streptomycin (25 μg/ml), and 5% fetal calf serum (FCS). The LNCaP cells were maintained in RPMI-1640-10% FCS. Transfections were performed using the calcium phosphate precipitation method in PC-3 and DU145, as previously described. Yeh, S., Lin, H. K., Kang, H. Y., Thin, T. H., Lin, M. F. & Chang, C. (1999) Proc Natl Acad Sci U S A 96, 5458-63. LNCaP cells were transfected using SuperFect™ according to standard procedures (Qiagen).

In series [5] the test system is AR transactivation. In words: AR transactivation, MMTV-luc / (ARE)4-luc luciferase reporter assay. It is filed as cell-based. The conditions noted are these: LNCaP MMTV-luc and CWR22 (ARE)4-luc.
In the next series the test system is AR protein levels. Kind of series: AR protein (Western blot) and AR mRNA (Northern blot) levels. Type of series: cell-based. The conditions noted are these: LNCaP, transfected.

“Also recorded” adds a separate entry of the source.

As to `C[C@]12CCC(=O)C[C@@H]1CC[C@@H]1[C@@H]2CC[C@]2(C)[C@@H](O)CC[C@@H]12` [DHT, 5α-dihydrotestosterone, reference compound], the “IL-6-induced PI3K activity” value in the series with PI3K (DHT and IL-6 for 30 min) is on record as “repress PI3K activity significantly”. Besides, the IL-6 protein expression result in the series on IL-6 protein expression (0, 1, 10 or 50 nM DHT 24 h, then 160 nM PMA 24 h) was “reduced by DHT in a dose-dependant manner”. In the series with LNCaP cells, the “LNCaP cell apoptosis, agent per se” value is “only marginal effects on apoptosis”. Also, the p21 promoter activity result in the series on p21 expression is “induce p21 promoter activity”. Moreover, the “wtAR transactivation response to ligand” value in series [1] is “responded well”. For the same compound, the “PSA mRNA expression” value in the series on PSA mRNA expression (10 nM DHT) was “induced PSA mRNA expression; also recorded: increases PSA mRNA expression”.
Regarding `CC(C)(O)C(=O)Nc1ccc([N+](=O)[O-])c(C(F)(F)F)c1` [HF, hydroxyflutamide], the “Effect on DHT repression of IL-6 protein expression” value in the series on IL-6 protein expression was “reverse this induction”. In [2], the “Effect on androgen-induced apoptosis” value is “inhibition of androgen-induced apoptosis”. Moreover, the “Effect on DHT/TPA-induced apoptosis” value in the series with LNCaP cells (LNCaP parent cells) is reported as “repress this DHT/TPA-mediated apoptosis”. Besides, in series [1], the “mtARt877a transactivation response to ligand” value is on record as “responded much better” and the “wtAR transactivation response to ligand” value is listed as “respond marginally”. The “Effect on Smad3-enhanced PSA induction” value in the series on PSA mRNA expression is “partially repressed”.
Turning to `CCCC(=O)[O-].[Na+]` [NaB], the “Effect on Smad3/Smad4-suppressed AR transactivation” value in the series on AR transactivation [3] is on record as “reverse Smad3/Smad4-repressed AR transactivation”.
As for `CCCCCCCCCCCCCC(=O)O[C@@H]1[C@@H](C)[C@@]2(O)[C@@H](C=C(CO)C[C@]3(O)C(=O)C(C)=C[C@@H]23)[C@H]2C(C)(C)[C@]12OC(C)=O` [TPA, 12-0-tetradecanoyl phorbol-13-acetate], the “LNCaP cell apoptosis, agent per se” value in the series with LNCaP cells is on record as “only marginal effects on apoptosis”.
Consider IL-6: a pleiotropic cytokine, for which the “Effect of IL-6 on AR transactivation (CAT activity)” value is recorded as “repress AR transactivation” in the series on AR transactivation [4] (MAPK pathway inhibited by 20 μM P098059 30 min prior to IL-6); “enhance AR transactivation” in the series with AR transactivation [4] (PI3K pathway inhibited by 20 μM LY294002 30 min prior to IL-6); “very limited effect” in the series with AR transactivation [4] (none of the MAPK and PI3K pathways blocked, DHT 24 h). Also, in the series with PI3K (PC-3, DU145 cells, 50 μg/ml IL-6 for 30 min), the PI3K activity entry was “increase PI3K activity”.
“PTEN-PTP: PTEN peptide (aa, 110-163) containing the phosphatase domain (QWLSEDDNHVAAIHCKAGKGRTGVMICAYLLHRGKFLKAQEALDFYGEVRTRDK; left off: a dimerising Fc or GST)”: the “Effect on AR transactivation” value in the series on AR transactivation [5] is recorded as “suppress of AR transactivation”. Besides, the AR degradation entry in the series with AR protein levels was “promote AR degradation”.
